Measurements taken from the supplement of paper PMC13380429.

Legend:
Details in all cases: 72 h
U2OS [1] = assay: cell viability relative to DMSO; higher = less toxic
Caco-2 [2] = assay: as above
HepG2 [3] = assay: as above
Calu-3 [4] = assay: as above
Vero E6 [5] = assay: as above
U2OS [6] = assay: relative viability EC50 (midpoint between 100% and the lowest measured viability); higher = less toxic
Caco-2 [7] = assay: as above
HepG2 [8] = assay: as above
Calu-3 [9] = assay: as above
Vero E6 [10] = assay: as above
U2OS [11] = assay: drug sensitivity score (DSS) for viability; higher = more toxic; extreme values may be limits of the assay
Caco-2 [12] = assay: as above
HepG2 [13] = assay: as above
Calu-3 [14] = assay: as above
Vero E6 [15] = assay: as above

Compound | cell viability (U2OS [1]; 1 nM) | cell viability (U2OS [1]; 10 nM) | cell viability (U2OS [1]; 100 nM) | cell viability (U2OS [1]; 1000 nM) | cell viability (U2OS [1]; 10000 nM) | cell viability (Caco-2 [2]; 1 nM) | cell viability (Caco-2 [2]; 10 nM) | cell viability (Caco-2 [2]; 100 nM) | cell viability (Caco-2 [2]; 1000 nM) | cell viability (Caco-2 [2]; 10000 nM) | cell viability (HepG2 [3]; 1 nM) | cell viability (HepG2 [3]; 10 nM) | cell viability (HepG2 [3]; 100 nM) | cell viability (HepG2 [3]; 1000 nM) | cell viability (HepG2 [3]; 10000 nM) | cell viability (Calu-3 [4]; 1 nM) | cell viability (Calu-3 [4]; 10 nM) | cell viability (Calu-3 [4]; 100 nM) | cell viability (Calu-3 [4]; 1000 nM) | cell viability (Calu-3 [4]; 10000 nM) | cell viability (Vero E6 [5]; 1 nM) | cell viability (Vero E6 [5]; 10 nM) | cell viability (Vero E6 [5]; 100 nM) | cell viability (Vero E6 [5]; 1000 nM) | cell viability (Vero E6 [5]; 10000 nM) | relative viability EC50 (U2OS [6]) | relative viability EC50 (Caco-2 [7]) | relative viability EC50 (HepG2 [8]) | relative viability EC50 (Calu-3 [9]) | relative viability EC50 (Vero E6 [10]) | drug sensitivity score (U2OS [11]) | drug sensitivity score (Caco-2 [12]) | drug sensitivity score (HepG2 [13]) | drug sensitivity score (Calu-3 [14]) | drug sensitivity score (Vero E6 [15])
Nc1ccc(C(=O)O)c(O)c1 [aminosalicylate] | 92.5% | 101% | 96.4% | 104% | 93.8% | 95.7% | 115% | 105% | 116% | 104% | 92.6% | 102% | 99.7% | 81.1% | 102% | 96.5% | 101% | 107% | 98.9% | 99.3% | 95.5% | 98.5% | 104% | 104% | 95.3% | > 10 µM | > 10 µM | > 10 µM | > 10 µM | > 10 µM | 0 | 0 | 0 | 0 | 0
COCCNC(=O)Cn1cnc([N+](=O)[O-])n1 [sanazole] | 98.3% | 104% | 96.7% | 97.7% | 95.8% | 93% | 99.6% | 95.9% | 93.9% | 93.4% | 103% | 93.3% | 102% | 95.7% | 97.6% | 96.7% | 106% | 97.6% | 102% | 103% | 99.5% | 99.1% | 95.7% | 101% | 96.6% | > 10 µM | > 10 µM | > 10 µM | > 10 µM | > 10 µM | 0 | 0 | 0 | 0 | 0
COc1ncc(-c2ccc3c(Nc4cc(Oc5cc(F)cc(F)c5)cc(C(=O)O)c4)c(S(=O)(=O)NC4CC4)cnc3c2)c(OC)n1 | 104% | 104% | 98.8% | 93.2% | 99.8% | 103% | 100% | 85% | 92.2% | 97.5% | 97% | 107% | 96.8% | 101% | 85.6% | 95.3% | 107% | 87.9% | 96.3% | 102% | 101% | 101% | 99.9% | 104% | 101% | > 10 µM | > 10 µM | > 10 µM | > 10 µM | > 10 µM | 0 | 0 | 0.2 | 0 | 0
C[N+](C)(C)CC(O)CC(=O)[O-] (stereo not given) [carnitine-(D/L)] | 94.1% | 94.4% | 87.2% | 80.6% | 95.9% | 105% | 77.6% | 100% | 81.8% | 89.7% | 98.1% | 82.5% | 92.1% | 86.3% | 80.9% | 96.9% | 102% | 109% | 99.9% | 94.3% | 100% | 101% | 91% | 106% | 104% | > 10 µM | > 10 µM | > 10 µM | > 10 µM | > 10 µM | 0 | 0.7 | 2.2 | 0 | 0
CC(=O)NCCCCCC(=O)O [acexamic-acid] | 96.8% | 104% | 96.3% | 104% | 100% | 108% | 99.2% | 98.3% | 108% | 103% | 93% | 105% | 99.1% | 93.7% | 107% | 98.9% | 89.2% | 94.9% | 114% | 102% | 99.4% | 99.1% | 101% | 99.3% | 102% | > 10 µM | > 10 µM | > 10 µM | > 10 µM | > 10 µM | 0 | 0 | 0 | 0 | 0
O=C(N[C@H]1CCN(C(=O)c2cc(C(F)(F)F)cc(C(F)(F)F)c2)[C@H](Cc2ccc(Cl)cc2)C1)c1ccnc2ccccc12 [AV-608] | 101% | 98.8% | 93.5% | 100% | 95.5% | 89.3% | 95% | 96.1% | 97.4% | 75.5% | 96.2% | 103% | 98.9% | 98.3% | 97.3% | 115% | 98.6% | 101% | 94.2% | 99.4% | 96% | 100% | 101% | 97.5% | 95.7% | > 10 µM | > 10 µM | > 10 µM | > 10 µM | > 10 µM | 0 | 1.3 | 0 | 0 | 0
CC(=O)[C@H]1CC[C@H]2[C@@H]3CCC4=CC(=O)CC[C@]4(C)[C@H]3CC[C@]12C [progesterone] | 100% | 98% | 101% | 100% | 96.8% | 97.4% | 98.8% | 98.4% | 87.2% | 82.9% | 102% | 99.9% | 102% | 96.4% | 95.6% | 95% | 98.4% | 87.2% | 94.5% | 92% | 92% | 108% | 91.3% | 96.8% | 110% | > 10 µM | > 10 µM | > 10 µM | > 10 µM | > 10 µM | 0 | 1.3 | 0 | 0 | 0
O=C(O)c1c2ccccc2cc2ccccc12 [9-anthracenecarboxylic-acid] | 100% | 100% | 101% | 101% | 103% | 93.1% | 95.8% | 95% | 100% | 105% | 101% | 90.5% | 102% | 104% | 102% | 97.1% | 97.9% | 99.4% | 101% | 96% | 98.4% | 97.1% | 98% | 94.7% | 103% | > 10 µM | > 10 µM | > 10 µM | > 10 µM | > 10 µM | 0 | 0 | 0 | 0 | 0
NCCCCCNCC12CC3CC(CC(C3)C1)C2 [IEM1754] | 98.6% | 106% | 100% | 100% | 99% | 104% | 97.4% | 101% | 104% | 102% | 106% | 89.3% | 98.1% | 97.8% | 97.9% | 108% | 106% | 91% | 97.8% | 82.1% | 98.6% | 98.6% | 94.7% | 97.3% | 102% | > 10 µM | > 10 µM | > 10 µM | > 10 µM | > 10 µM | 0 | 0 | 0 | 0.7 | 0
Cc1ccc(S(=O)(=O)N2CCC[C@H]2c2ccc(F)cc2)cc1 [Ro-67-7476] | 98.8% | 95.1% | 107% | 99.4% | 99.2% | 96.6% | 102% | 102% | 97.3% | 104% | 106% | 104% | 96.2% | 102% | 97.4% | 106% | 101% | 94.4% | 98.1% | 105% | 109% | 104% | 94.1% | 104% | 100% | > 10 µM | > 10 µM | > 10 µM | > 10 µM | > 10 µM | 0 | 0 | 0 | 0 | 0
COc1cc2c(Nc3ccc(NC(=O)c4ccccc4)cc3)ncnc2cc1OCCCN1CCOCC1 | 105% | 98.3% | 101% | 103% | 102% | 99.6% | 96.8% | 106% | 102% | 108% | 102% | 107% | 96.4% | 108% | 109% | 95.2% | 95.5% | 96.9% | 79.4% | 99.6% | 99.7% | 101% | 101% | 97.3% | 108% | > 10 µM | > 10 µM | > 10 µM | > 10 µM | > 10 µM | 0 | 0 | 0 | 0 | 0
CC(C(=O)O)c1ccc2c(c1)Cc1cccnc1O2 (stereo not given) [pranoprofen] | 104% | 99.1% | 95.2% | 104% | 106% | 88.3% | 86.7% | 89.5% | 95.3% | 102% | 95.8% | 103% | 94.1% | 104% | 111% | 97.5% | 92.9% | 97.1% | 100% | 108% | 96.2% | 96.5% | 98.4% | 100% | 105% | > 10 µM | > 10 µM | > 10 µM | > 10 µM | > 10 µM | 0 | 0 | 0 | 0 | 0
CN(C)[C@@H](CCOc1cccc2ccccc12)c1ccccc1 [dapoxetine] | 103% | 103% | 103% | 98.2% | 89.3% | 98.5% | 96% | 101% | 102% | 89.6% | 94.1% | 104% | 97.1% | 95.7% | 89% | 103% | 104% | 105% | 91.7% | 81.3% | 97.5% | 101% | 98.7% | 98.8% | 88.6% | > 10 µM | > 10 µM | > 10 µM | > 10 µM | > 10 µM | 0 | 0 | 0 | 1.3 | 0.1
Clc1ccccc1CN1CCc2sccc2C1 [ticlopidine] | 98.9% | 91.5% | 97.2% | 102% | 108% | 91.9% | 102% | 93.5% | 93.4% | 99.8% | 97.5% | 93% | 107% | 106% | 94.9% | 101% | 98.3% | 99.6% | 91.7% | 101% | 89% | 97.9% | 98% | 95.6% | 105% | > 10 µM | > 10 µM | > 10 µM | > 10 µM | > 10 µM | 0 | 0 | 0 | 0 | 0
